Experimental data reported in patent US9247759B2, “Identification of human T2R receptors that respond to bitter compounds that elicit the bitter taste in compositions, and the use thereof in assays to identify compounds that inhibit (block) bitter taste in compositions and use thereof” (SENOMYX, INC., priority 2007, dated 2016).
Where two headings read alike, the source gives them in different places.

Columns and labels:
hT2R67 = assay: hT2R panel inhibition, transient HEK293 G16g44, agonist Andrographolide 5 μM; assay type: cell-based, human; settings: compound at 25 μM; receptor activated to EC80 with the corresponding agonist
Protocol: (§1) Specifically, in order to evaluate the inhibitory selectivity of the Compound C compound, this compound was tested against 22 human T2Rs which were deorphaned by Senomyx. These receptors and the bitter ligands that activate these human T2Rs are reported in earlier patent applications which are incorporated by reference herein. These 22 human T2Rs are hT2R1, 3, 4, 5, 7, 8, 9, 10, 13, 14, 16, 44, 51, 54, 55, 61, 63, 64, 65, 67, 71 and 75. The amino acid and nucleic acid sequences of all of these T2Rs may be found in these earlier patent applications. These human T2Rs were each individually transiently transfected into HEK293 cells that stably express the promiscuous G protein G16g44 and functional assays were effected using these receptors as disclosed in these same patent applications. […] The ligands were used at EC80 concentration levels. The list of bitter ligands utilized and the tested ligand concentrations are contained in Table 5 of this example.
(§2) Relating to the foregoing, FIG. 5 contains experimental results wherein Compound C was tested with different agonist compounds. The inhibition activity is represented by the reduction of receptor activity in the presence of Compound C. […] These 13 hT2Rs are hT2R3, 7, 10, 14, 16, 44, 51, 55, 61, 63, 64, 65, and 71.

hT2R3 = hT2R3 (Homo sapiens (Human), UniProt Q9NYW6); assay: hT2R panel inhibition, transient HEK293 G16g44, agonist Chloroquine pH6.5 50 μM; assay type: cell-based; settings: HEK293, compound at 25 μM; receptor activated to EC80 with the corresponding agonist; read-out: screening result against bitter receptor 3
Sequence of hT2R3 (Q9NYW6 whole entry): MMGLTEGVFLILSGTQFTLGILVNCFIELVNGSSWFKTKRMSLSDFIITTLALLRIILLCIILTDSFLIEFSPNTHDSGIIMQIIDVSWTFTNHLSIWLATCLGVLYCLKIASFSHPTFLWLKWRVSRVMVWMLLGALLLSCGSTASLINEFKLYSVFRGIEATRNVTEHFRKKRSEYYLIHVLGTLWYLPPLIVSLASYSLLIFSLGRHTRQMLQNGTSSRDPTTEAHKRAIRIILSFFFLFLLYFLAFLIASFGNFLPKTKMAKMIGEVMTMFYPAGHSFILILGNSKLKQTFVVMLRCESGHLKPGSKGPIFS
Protocol: as §1, §2

hT2R14 [1] = molecular target: T1, hT2R14 (Homo sapiens (Human), UniProt Q9NYV8); assay: hT2R panel inhibition, transient HEK293 G16g44, agonist Aristolochic Acid 2 μM; assay type: cell-based; settings: HEK293, compound at 25 μM
T1 sequence (Q9NYV8 whole entry): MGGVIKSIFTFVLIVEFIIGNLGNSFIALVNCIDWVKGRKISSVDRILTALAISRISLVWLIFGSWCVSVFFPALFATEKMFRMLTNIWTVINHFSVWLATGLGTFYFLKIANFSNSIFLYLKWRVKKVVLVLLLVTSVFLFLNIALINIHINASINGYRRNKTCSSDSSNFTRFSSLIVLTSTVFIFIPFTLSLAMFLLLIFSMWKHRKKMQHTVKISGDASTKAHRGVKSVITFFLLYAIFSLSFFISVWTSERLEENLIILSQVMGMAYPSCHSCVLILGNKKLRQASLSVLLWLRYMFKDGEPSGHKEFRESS
Protocol: as §1

hT2R63 = assay: hT2R panel inhibition, transient HEK293 G16g44, agonist Caffeine 1 mM or Andrographolide 100 μM; assay type: cell-based, human; settings: compound at 25 μM; for screening result against bitter receptor 63: receptor activated to EC80 with the corresponding agonist; for inhibition of bitter receptor 63: receptor activated to EC80 with agonist
Protocol: as §1, §2

hT2R16 = hT2R16 (Homo sapiens (Human), UniProt Q9NYV7); assay: hT2R panel inhibition, transient HEK293 G16g44, agonist Salicin 1 mM; assay type: cell-based; settings: HEK293, compound at 25 μM; receptor activated to EC80 with the corresponding agonist; read-out: screening result against bitter receptor 16
Sequence of hT2R16 (Q9NYV7 whole entry): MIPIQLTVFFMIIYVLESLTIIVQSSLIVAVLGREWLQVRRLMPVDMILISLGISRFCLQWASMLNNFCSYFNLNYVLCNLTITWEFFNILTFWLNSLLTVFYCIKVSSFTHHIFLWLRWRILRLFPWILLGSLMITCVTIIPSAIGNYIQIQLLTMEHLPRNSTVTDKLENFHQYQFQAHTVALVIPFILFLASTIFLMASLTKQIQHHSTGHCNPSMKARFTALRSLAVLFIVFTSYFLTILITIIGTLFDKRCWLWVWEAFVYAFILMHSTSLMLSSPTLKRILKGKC
Protocol: as §1, §2

hT2R61 = hT2R61 (Homo sapiens (Human), UniProt P59537); assay: hT2R panel inhibition, transient HEK293 G16g44, agonist Aristolochic Acid 25 nM; assay type: cell-based; settings: HEK293, compound at 25 μM
Sequence of hT2R61 (P59537 whole entry): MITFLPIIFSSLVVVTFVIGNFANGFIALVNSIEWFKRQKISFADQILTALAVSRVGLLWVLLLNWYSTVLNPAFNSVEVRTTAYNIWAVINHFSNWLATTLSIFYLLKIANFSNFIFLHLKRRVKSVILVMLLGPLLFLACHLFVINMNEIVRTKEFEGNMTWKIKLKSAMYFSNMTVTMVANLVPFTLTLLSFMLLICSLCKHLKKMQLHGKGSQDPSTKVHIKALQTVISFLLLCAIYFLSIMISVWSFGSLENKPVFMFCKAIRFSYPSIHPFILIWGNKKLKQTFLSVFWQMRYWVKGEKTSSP
Protocol: as §1, §2

hT2R64 = hT2R64 (Homo sapiens (Human), UniProt P59538); assay: hT2R panel inhibition, transient HEK293 G16g44, agonist Aristolochic Acid 1 μM; assay type: cell-based; settings: HEK293, compound at 25 μM; receptor activated to EC80 with the corresponding agonist; read-out: screening result against bitter receptor 64
Sequence of hT2R64 (P59538 whole entry): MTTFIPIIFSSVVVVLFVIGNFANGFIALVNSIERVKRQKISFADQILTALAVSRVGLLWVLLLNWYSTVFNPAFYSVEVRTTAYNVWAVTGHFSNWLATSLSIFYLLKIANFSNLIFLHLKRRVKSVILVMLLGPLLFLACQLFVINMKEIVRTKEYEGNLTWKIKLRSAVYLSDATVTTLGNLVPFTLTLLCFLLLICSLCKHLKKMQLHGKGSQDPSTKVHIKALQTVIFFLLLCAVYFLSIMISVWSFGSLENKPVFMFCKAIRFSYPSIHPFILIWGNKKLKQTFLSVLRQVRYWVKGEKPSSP
Protocol: as §1, §2

hT2R44 = assay: hT2R panel inhibition, transient HEK293 G16g44, agonist Denatonium 0.5 μM; assay type: cell-based, human; settings: compound at 25 μM; for screening result against bitter receptor 44: receptor activated to EC80 with the corresponding agonist; for inhibition of bitter receptor 44: receptor activated to EC80 with agonist
Protocol: as §1, §2

hT2R7 = hT2R7 (Homo sapiens (Human), UniProt Q9NYW3); assay: hT2R panel inhibition, transient HEK293 G16g44, agonist Chloroquine pH6.5 10 mM; assay type: cell-based; settings: HEK293, compound at 25 μM
Sequence of hT2R7 (Q9NYW3 whole entry): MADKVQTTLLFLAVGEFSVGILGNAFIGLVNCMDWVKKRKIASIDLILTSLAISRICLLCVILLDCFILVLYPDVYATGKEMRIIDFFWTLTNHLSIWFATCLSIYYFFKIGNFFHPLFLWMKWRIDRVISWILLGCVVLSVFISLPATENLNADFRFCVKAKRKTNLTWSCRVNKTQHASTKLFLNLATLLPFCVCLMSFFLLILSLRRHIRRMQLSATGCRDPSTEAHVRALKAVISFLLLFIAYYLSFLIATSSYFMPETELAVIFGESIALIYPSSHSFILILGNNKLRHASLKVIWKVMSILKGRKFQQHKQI
Protocol: as §1, §2

hT2R55 = assay: hT2R panel inhibition, transient HEK293 G16g44, agonist Cinchonine 150 μM; assay type: cell-based, human; settings: compound at 25 μM; receptor activated to EC80 with the corresponding agonist
Protocol: as §1, §2

hT2R10 = hT2R10 (Homo sapiens (Human), UniProt Q9NYW0); assay: hT2R panel inhibition, transient HEK293 G16g44, agonist Strychnine 50 μM; assay type: cell-based; settings: HEK293, read-out: screening result against bitter receptor 10, compound at 25 μM; receptor activated to EC80 with the corresponding agonist
Sequence of hT2R10 (Q9NYW0 whole entry): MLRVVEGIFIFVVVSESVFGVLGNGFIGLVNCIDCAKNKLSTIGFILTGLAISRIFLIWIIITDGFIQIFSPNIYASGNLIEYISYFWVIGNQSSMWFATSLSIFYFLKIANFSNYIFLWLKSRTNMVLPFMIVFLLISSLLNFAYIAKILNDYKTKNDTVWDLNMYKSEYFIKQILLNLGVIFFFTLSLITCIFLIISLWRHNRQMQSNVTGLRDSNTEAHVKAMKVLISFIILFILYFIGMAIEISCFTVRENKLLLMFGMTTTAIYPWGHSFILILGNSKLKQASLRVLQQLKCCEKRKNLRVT
Protocol: as §1, §2

hT2R5 = hT2R5 (Homo sapiens (Human), UniProt Q9NYW4); assay: hT2R panel inhibition, transient HEK293 G16g44, agonist Picoline 10 mM; assay type: cell-based; settings: HEK293, compound at 25 μM; receptor activated to EC80 with the corresponding agonist; read-out: screening result against bitter receptor 5
Sequence of hT2R5 (Q9NYW4 whole entry): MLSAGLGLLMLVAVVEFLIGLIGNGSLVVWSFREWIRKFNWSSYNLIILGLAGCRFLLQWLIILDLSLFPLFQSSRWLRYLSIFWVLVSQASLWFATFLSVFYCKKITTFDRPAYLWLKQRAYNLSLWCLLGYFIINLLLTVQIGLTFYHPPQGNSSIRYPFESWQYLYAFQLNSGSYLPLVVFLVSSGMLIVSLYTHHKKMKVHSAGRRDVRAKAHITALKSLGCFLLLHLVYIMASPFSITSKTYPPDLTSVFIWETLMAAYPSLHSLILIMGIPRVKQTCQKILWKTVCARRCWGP
Protocol: as §1, §2

hT2R71 = hT2R71 (Homo sapiens (Human), UniProt P59536); assay: hT2R panel inhibition, transient HEK293 G16g44, agonist Picric Acid 10 μM; assay type: cell-based; settings: HEK293, compound at 25 μM
Sequence of hT2R71 (P59536 whole entry): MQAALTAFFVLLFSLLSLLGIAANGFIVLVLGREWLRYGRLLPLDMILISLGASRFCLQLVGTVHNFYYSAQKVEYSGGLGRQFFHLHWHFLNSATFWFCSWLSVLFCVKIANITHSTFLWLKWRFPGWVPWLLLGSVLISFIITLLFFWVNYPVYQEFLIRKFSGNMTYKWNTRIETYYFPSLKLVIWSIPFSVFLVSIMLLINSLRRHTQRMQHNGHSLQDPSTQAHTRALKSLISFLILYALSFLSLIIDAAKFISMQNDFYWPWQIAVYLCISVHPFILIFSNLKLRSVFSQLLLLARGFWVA
Protocol: as §1, §2

hT2R14 [2] = molecular target: T1, hT2R14; assay: hT2R14 antagonist high-throughput FLIPR assay, stable cell line with G16g44, agonist aristolochic acid; assay type: cell-based
Summary of the method: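 Compounds were co-applied with 3 μM aristolochic acid, a dose set to reach 70-80% of maximal hT2R14 activation. Read-out was FLIPR fluorescence in a stable HEK293 line co-expressing hT2R14 and G16g44.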

hT2R65 = assay: hT2R panel inhibition, transient HEK293 G16g44, agonist Oleuropein 1 mM; assay type: cell-based, human; settings: compound at 25 μM
Protocol: as §1, §2

[3] = receptor activated to EC80 with the corresponding agonist, read-out: screening result against bitter receptor 14
[4] = receptor activated to EC80 with the corresponding agonist, read-out: screening result against bitter receptor 61
[5] = receptor activated to EC80 with agonist, read-out: inhibition of bitter receptor 14
[6] = receptor activated to EC80 with agonist, read-out: inhibition of bitter receptor 7
[7] = receptor activated to EC80 with the corresponding agonist, read-out: screening result against bitter receptor 71
[8] = receptor activated to EC80 with agonist, read-out: inhibition of bitter receptor 61
[9] = receptor activated to EC80 with the corresponding agonist, read-out: screening result against bitter receptor 7

| Structure (SMILES) | inhibition at 25 µM (hT2R3) [%] | inhibition at 25 µM (hT2R14 [1]; [3]) [%] | screening result against bitter receptor 63 (hT2R63) | inhibition at 25 µM (hT2R61; [4]) [%] | inhibition at 25 µM (hT2R64) [%] | screening result against bitter receptor 44 (hT2R44) | screening result against bitter receptor 55 (hT2R55) | inhibition at 25 µM (hT2R5) [%] | inhibition at 25 µM (hT2R71; [7]) [%] | also measured |
| --- | --- | --- | --- | --- | --- | --- | --- | --- | --- | --- |
| O=C(O)c1ccc(S(=O)(=O)NCc2ccco2)cc1 [Example 5-54, 4-(N-(furan-2-ylmethyl)sulfamoyl)benzoic acid] | 20 to 40 |  |  |  |  |  |  |  |  | screening result against bitter receptor 67 (hT2R67): + (20% to 40% inhibition = +) |
| COc1ccc(C(NS(=O)(=O)c2ccc(C(=O)O)cc2)c2ccccc2)cc1 (centres unmarked) [Example 5-97, 4-(N-((4-methoxyphenyl)(phenyl)methyl)sulfamoyl) benzoic acid] |  | 20 to 40 | +++ (60% to 80% inhibition = +++) | 20 to 40 | 20 to 40 | + (20% to 40% inhibition = +) |  |  |  | inhibition at 25 µM (hT2R16): 60 to 80% |
| Cc1c(F)cccc1NS(=O)(=O)c1ccc2c(c1)c(=O)n(C)c(=O)n2C [Example 6-7, N-(3-fluoro-2-methylphenyl)-1,3-dimethyl-2,4-dioxo-1,2,3,4-tetrahydroquinazoline-6-sulfonamide] |  |  |  |  |  |  |  |  |  | inhibition at 25 µM (hT2R14 [1]; [5]): 40 to 60%; inhibition of bitter receptor 63 (hT2R63): + (20% to 40% inhibition = +); inhibition at 25 µM (hT2R7; [6]): 20 to 40% |
| COc1ccc(CN(Cc2ccccc2)S(=O)(=O)CCC(=O)O)cc1 [Example 5-57, 3-(N-benzyl-N-(4-methoxybenzyl)sulfamoyl)propanoic acid] | 20 to 40 |  |  | > 80 | 40 to 60 |  | +++ (60% to 80% inhibition = +++) |  |  | inhibition at 25 µM (hT2R10): 20 to 40% |
| CN(Cc1ccccc1)S(=O)(=O)c1ccc(C(=O)O)cc1 [Example 5-55, 4-(N-benzyl-N-methylsulfamoyl)benzoic acid] | 20 to 40 | > 80 | ++++ (80% or greater inhibition = ++++) | 20 to 40 | 40 to 60 |  | ++ (40% to 60% inhibition = ++) | 20 to 40 |  |  |
| COc1ccc(CN(Cc2cccs2)S(=O)(=O)c2ccc(C(=O)O)cc2)cc1 [Example 5-61, 4-(N-(4-methoxybenzyl)-N-(thiophen-2-ylmethyl)sulfamoyl)benzoic acid] |  |  | ++++ (80% or greater inhibition = ++++) | 40 to 60 | 20 to 40 |  | + (20% to 40% inhibition = +) | 20 to 40 | 20 to 40 |  |
| Cn1c(=O)c2cc(S(=O)(=O)Nc3ccc4c(c3)OCO4)ccc2n(C)c1=O [Example 6-5, N-(benzo[d][1,3]dioxol-5-yl)-1,3-dimethyl-2,4-dioxo-1,2,3,4-tetrahydroquinazoline-6-sulfonamide] |  |  |  |  |  |  |  |  |  | inhibition at 25 µM (hT2R14 [1]; [5]): > 80%; inhibition of bitter receptor 63 (hT2R63): ++++ (80% or greater inhibition = ++++); IC50 (hT2R14 [2]; Table D, read-out: hT2R14 IC50): 0.264 µM; inhibition at 25 µM (hT2R71; receptor activated to EC80 with agonist, read-out: inhibition of bitter receptor 71): 60 to 80%; inhibition at 25 µM (hT2R61; [8]): 20 to 40%; inhibition of bitter receptor 65 (hT2R65; receptor activated to EC80 with agonist): ++ (40% to 60% inhibition = ++); inhibition of bitter receptor 44 (hT2R44): ++ (40% to 60% inhibition = ++) |
| COc1ccc(CN(Cc2ccccn2)S(=O)(=O)c2ccc(C(=O)O)cc2)cc1 [Example 5-87, 4-(N-(4-methoxybenzyl)-N-(pyridin-2-ylmethyl)sulfamoyl)benzoic acid] |  |  | + (20% to 40% inhibition = +) | 40 to 60 | 20 to 40 |  |  |  |  | screening result against bitter receptor 67 (hT2R67): + (20% to 40% inhibition = +) |
| COc1ccc(CN(Cc2ccccc2)S(=O)(=O)c2ccc(C(=O)O)cc2)cn1 [Example 5-90, 4-(N-benzyl-N-((6-methoxypyridin-3-yl)methyl)sulfamoyl)benzoic acid] | 40 to 60 | > 80 | ++++ (80% or greater inhibition = ++++) | > 80 | 60 to 80 | +++ (60% to 80% inhibition = +++) | +++ (60% to 80% inhibition = +++) | 20 to 40 | 60 to 80 | inhibition at 25 µM (hT2R16): 20 to 40%; screening result against bitter receptor 65 (hT2R65; receptor activated to EC80 with the corresponding agonist): ++ (40% to 60% inhibition = ++); inhibition at 25 µM (hT2R7; [9]): 60 to 80%; inhibition at 25 µM (hT2R10): 40 to 60% |
| N#Cc1ccccc1CN(Cc1ccccc1)S(=O)(=O)c1ccc(C(=O)O)cc1 [Example 5-92, 4-(N-benzyl-N-(2-cyanobenzyl)sulfamoyl)benzoic acid] | 20 to 40 | > 80 | ++++ (80% or greater inhibition = ++++) | > 80 | > 80 | ++++ (80% or greater inhibition = ++++) | ++++ (80% or greater inhibition = ++++) | 20 to 40 | 40 to 60 | inhibition at 25 µM (hT2R16): 20 to 40%; inhibition at 25 µM (hT2R7; [9]): 20 to 40%; inhibition at 25 µM (hT2R10): 20 to 40% |
| Cc1ccccc1NS(=O)(=O)c1ccc2c(c1)c(=O)n(C)c(=O)n2C [Example 6-9, 1,3-dimethyl-2,4-dioxo-N-o-tolyl-1,2,3,4-tetrahydroquinazoline-6-sulfonamide] |  |  |  |  |  |  |  |  |  | inhibition at 25 µM (hT2R14 [1]; [5]): > 80%; inhibition of bitter receptor 63 (hT2R63): + (20% to 40% inhibition = +); IC50 (hT2R14 [2]; Table D, read-out: hT2R14 IC50): 1.73 µM; inhibition at 25 µM (hT2R61; [8]): 20 to 40%; inhibition at 25 µM (hT2R7; [6]): 40 to 60%; inhibition of bitter receptor 44 (hT2R44): + (20% to 40% inhibition = +) |
| COc1ccc(CN(Cc2ccc(C(=O)O)cc2)S(=O)(=O)c2ccc(O)cc2)cc1 [Example 5-44, 4-((4-hydroxy-N-(4-methoxybenzyl)phenylsulfonamido)methyl)-benzoic acid] | 20 to 40 | > 80 | ++++ (80% or greater inhibition = ++++) | > 80 | 40 to 60 | ++ (40% to 60% inhibition = ++) | + (20% to 40% inhibition = +) |  | 40 to 60 | IC50 (hT2R14 [2]; read-out: IC50 on hT2R14 bitter receptor): 3.43 µM |
